Legend:
STING = assay: SEAP reporter assay in B16-Blue ISG-KO-STING cells; assay type: cell-based, murine
Excerpt: B16-Blue™ ISG-KO-STING cells were generated from the B16-Blue™ ISG cell line, a murine B16-F1 melanoma-derived cell line, through stable knockout of the STING gene. They express the secreted embryonic alkaline phosphatase (SEAP) reporter gene under the control of the I-ISG54 promoter which is comprised of the IFN-inducible ISG54 promoter enhanced by a multimeric ISRE. […] Stimulation of these cells with IFN triggers the activation of the I-ISG54 promoter and the production of SEAP.
Referring to FIG. 26, known STING pathways activators, Herpes simplex virus DNA complexed with LyoVec (HSV-LyoVec) and the cyclic dinucleotide 2′,3′-cGAMP were used to validate cell line properties.

I-ISG54 promoter = assay: SEAP reporter assay in B16-Blue ISG cells; assay type: cell-based, murine
Excerpt: B16-Blue™ ISG cells were derived from the murine B16 F1 melanoma cell line. They express the secreted embryonic alkaline phosphatase (SEAP) reporter gene under the control of the I-ISG54 promoter which is comprised of the IFN-inducible ISG54 promoter enhanced by a multimeric ISRE. Stimulation of B16-Blue™ ISG cells with IFNs, cyclic dinucleotides, such as cGAMP, or type I IFN inducers, such as transfected poly(dA:dT), triggers the activation of the I-ISG54 promoter and the production of SEAP.

BRD [1] = assay: BRD treatment study in beef calves: Draxxin, Seq No 2-F, combination; assay type: in vivo, cattle; conditions: 56 days after diagnosis
Method: The purpose of this study was to compare the effectiveness of Draxxin®, Draxxin® and Seq No 2-F, or Seq No 2-F alone in cattle diagnosed with BRD.
The first group was administered 1.1 ml/cwt of Draxxin® subcutaneously at the time of diagnosis. […] A 3 day moratorium followed treatment, and the study concluded 56 days after the diagnosis.

BRD [2] = assay: Metaphylaxis study in feedlot calves at medium risk of BRD versus Micotil; conditions: calves observed for 56 days
Method: Weaned beef calves with an average weight of 590 lbs and determined to be at medium risk for BRD were selected for this study.
Morbidity, mortality, average daily gain (ADG), dry matter intake (DMI), and feed to weight gain ratio were measured and compared between the study groups.

BRD [3] = assay: BRD treatment study in heifers: Baytril 100, Seq No 2-F, combination; assay type: in vivo, cattle; conditions: observed until day 60 post-diagnosis
[4] = system: interferon regulatory factor 3 (IRF-3); assay: IRF-inducible SEAP reporter assay in THP1-Blue ISG (IRF-THP-1) cells
Excerpt: A human macrophage-like (monocyte) cell line (THP-1), derived from an acute monocytic leukemia patient, is used as a model system for monocyte function. THP1-Blue ISG cells (Invitrogen) were generated by stable integration of an interferon regulatory factor (IRF)-inducible secretory alkaline phosphatase (SEAP) reporter construct (IRF-THP1 cells). The THP-1 cells endogenously contain functional STING (Simulator of interferon genes) pathway molecules, as well as cytosolic DNA recognition receptors. STING receives signals from and is itself a cytosolic DNA surveillance molecule that acts through IRF-3. Activation of STING leads to SEAP production, which is then detectable in the culture supernatant. Thus, activation of the IRF-3 reporter SEAP construct correlates to activation of the STING pathway.
The stably transfected IRF-THP-1 cell line was tested for its functionality by IFN-α1, which is a global activator of different IRF pathways. IRF-THP-1 cells were contacted with human interferon α1 (IFN α1) as a positive control for IRF-3 activation. […] FIG. 4 graphically illustrates IFN α1 activation of IRF-3.

## Nc1nc2c(ncn2[C@@H]2O[C@@H]3COP(=O)(O)O[C@H]4[C@@H](O)[C@H](n5cnc6c(N)ncnc65)O[C@@H]4COP(=O)(O)O[C@@H]2[C@@H]3O)c(=O)[nH]1 [2′,3′-cGAMP]
STING
  signal (interferon-response element readout): completely abrogated
I-ISG54 promoter; parental B16-Blue ISG cell line, FIG. 26
  signal (interferon-response element readout): significant signals

## CCCNC[C@]1(O)[C@H](C)O[C@@H](O[C@H]2[C@H](C)[C@@H](O[C@@H]3O[C@H](C)C[C@H](N(C)C)[C@H]3O)[C@](C)(O)C[C@@H](C)CN[C@H](C)[C@@H](O)[C@](C)(O)[C@@H](CC)OC(=O)[C@@H]2C)C[C@@]1(C)OC [Draxxin, tulathromycin]
BRD [1]
  ADG (deads in): 3.2 lbs/day
  ADG (deads out): 3.3 lbs/day
  Avg wt gain (deads in): 181.1 lbs
  Avg wt gain (deads out): 187.0 lbs
  BRD Chronicity: 4.0%
  BRD case-fatality: 1.3%
  BRD morbidity: 29.2%
  BRD repulls: 37.2%
  Time to BRD Dx: 18.8 days

## Nc1nc2c(ncn2[C@@H]2O[C@@H]3COP(=O)(O)O[C@H]4[C@@H](O)[C@H](n5cnc6c(N)ncnc65)O[C@@H]4COP(=O)(O)O[C@H]3[C@H]2O)c(=O)[nH]1 [3′,3′-cGAMP]
I-ISG54 promoter; controls, FIG. 21
  SEAP signal: expected specific signals

## CC[C@H]1OC(=O)C[C@@H](O)[C@H](C)[C@@H](O[C@@H]2O[C@H](C)[C@@H](O)[C@H](N(C)C)[C@H]2O)[C@@H](CCN2C[C@H](C)C[C@H](C)C2)C[C@@H](C)C(=O)/C=C/C(C)=C/[C@@H]1CO[C@@H]1O[C@H](C)[C@@H](O)[C@@H](OC)[C@H]1OC [Micotil]
BRD [2]
  ADG: 2.96
  BRD Chronicity: 27.90%
  BRD case-fatality: 3.95%
  BRD repulls: 17.9%
  DMI: 12.96
  Feed: Gain: 4.50
  Overall BRD Mortality: 0.44%
  Time to BRD Dx: 28.1

## CCN1CCN(c2cc3c(cc2F)c(=O)c(C(=O)O)cn3C2CC2)CC1 [Baytril 100, enrofloxacin]
BRD [3]
  ADG (deads out): 1.8 lbs/day
  Avg wt gain (deads in): 24.3 lbs
  Avg wt gain (deads out): 87.00 lbs
  BRD Chronicity: 22.10%
  BRD case-fatality: 10.0%
  BRD repulls: 44.8%

B1: IFN-α1: human interferon α1, positive control, global activator of different IRF pathways (protein, UniProt P01562 24-189, looked up)
Interferon alpha-1/13: CDLPETHSLDNRRTLMLLAQMSRISPSSCLMDRHDFGFPQEEFDGNQFQKAPAISVLHELIQQIFNLFTTKDSSAAWDEDLLDKFCTELYQQLNDLEACVMQEERVGETPLMNADSILAVKKYFRRITLYLTEKKYSPCAWEVVRAEIMRSLSLSTNLQERLRRKE
I-ISG54 promoter; IFN-α1 dosing, FIG. 20
  SEAP signal: clear dose-response relationship
[4]; 1.5625-50 μg/ml, FIG. 11
  SEAP signal, dose-response curve: dose-dependent response
[4]; IFN-α1 dosing, FIG. 4
  SEAP signal: clear dose-response relationship
